Values quoted from earlier work as cited in patent US10946011B2 (Martin Pharmaceuticals Inc., priority 2018, dated 2021).

PKa: 6.80
SMILES: OCC(CO)(CO)NCCCNC(CO)(CO)CO [BIS-Tris Propane]
